In patent US12594267B2, “Capsid inhibitors for the treatment of HIV” (Gilead Sciences, Inc., priority 2018, dated 2026):

Assay: PK after subcutaneous administration of solutions in dogs
Format: in vivo, Beagle dog
Details: for Plasma concentration: SC 12 mg/kg, 300 mg/mL (22.6% water/50% PEG 300/1.1% NaOH/26.3% Formula (Ia))
Method: Formulations containing the compound of Formula (Ia) were prepared as aqueous solutions or oral formulations and administered subcutaneously to rats, dogs, cynomolgus monkey, and/or rhesus monkey.
A solution of the compound of Formula (Ia) in 10% ethanol, 13% water, and 77% PEG 200 (400 mg/mL) was prepared. The solution was administered subcutaneously to dogs at a dose of 12 mg/kg and rats at a dose of 50 mg/kg and the pharmacokinetic (PK) profile was determined. […] In both species, plasma concentrations of the compound of Formula (Ia) were maintained above the target trough concentration of 20 nM (corresponding to an IQ of 5) for at least 84 days (12 weeks).
A solution of the compound of Formula (Ia) in 15% water and 85.0 PEG 300 (400 mg/mL) was prepared. The solution was administered subcutaneously to male beagle dogs at a dose level of 12 mg/kg and dose volume of […] and the pharmacokinetic (PK) profile was determined.
A solution of the compound of Formula (a) sodium salt in water and 300 (300 mg/mL) was prepared that contained 22.6% water/50% PEG 300/1.1% NaOH/26.3% Formula (Ia). The solution was administered subcutaneously to male beagle dogs at a dose level of 12 mg/kg and dose volume of […] and the pharmacokinetic (PK) profile was determined.
A 300 mg/ml solution of a compound of Formula (Ia) having 9.8 w/w % water, 65.0 w/w % PEG 300, and 25.2 w/w % of the compound of Formula (Ia) was prepared. The solution was administered subcutaneously to rats at a dose of 50 mg/kg and to dogs at a dose of 12 mg/kg and the pharmacokinetic (PK) profile was determined. […] In the rat, plasma concentrations of the compound of Formula (Ia) were maintained above the target trough concentration of 20 nM for at least 168 days (24 weeks). In the dog, plasma concentrations of the compound of Formula (Ia) were maintained above the target trough concentration of 20 nM for at least 84 days (12 weeks).
(§1) A 150 mg/ml solution of a compound of Formula (Ia) having 27.92 w/w % water, 58.04 w/w % PEG 300, 13.47 w/w % of a compound of Formula (Ia), and 1.1 w/w % NaOH was prepared. The solution was administered subcutaneously to rats at a dose of 50 mg/kg and to dogs at a dose of 12 mg/kg and the pharmacokinetic (PK) profile was determined. […] In the rat, plasma concentrations of the compound of Formula (Ia) were maintained above the target trough concentration of 20 nM for at least 126 days (18 weeks). In the dog, plasma concentrations of the compound of Formula (Ia) were maintained above the target trough concentration of 20 nM for at least 56 days (8 weeks).
as §1, with “300” for “150”, “23.2” for “27.92”, “50.0” for “58.04”, “25.7” for “13.47”
A 50 mg/ml solution of a compound of Formula (Ia) having 30.07 w/w % water, 64.40 w/w % PEG 300, 4.68 w/w % of a sodium salt of the compound of Formula (Ia), and 0.85 w/w % poloxamer 188 was prepared. The solution was administered subcutaneously to rats at a dose of 50 mg/kg and to dogs at a dose of 6 mg/kg and the pharmacokinetic (PK) profile was determined. […] In the rat, plasma concentrations of the compound of Formula (Ia) were maintained above the target trough concentration of 20 nM for at least 28 days (4 weeks). In the dog, plasma concentrations of the compound of Formula (Ia) were maintained above the target trough concentration of 20 nM for at least 14 days (2 weeks). […]

[1] = male beagle dog, single SC 12 mg/kg, 300 mg/mL, 50, 22.6, 1.1, 26.3 w/w % PEG300:Water:NaOH:Formula (Ia), mean ± SD, n=3

Structure (SMILES): CC(C)(C#Cc1ccc(-c2ccc(Cl)c3c([N-]S(C)(=O)=O)nn(CC(F)(F)F)c23)c([C@H](Cc2cc(F)cc(F)c2)NC(=O)Cn2nc(C(F)(F)F)c3c2C(F)(F)[C@@H]2C[C@H]32)n1)S(C)(=O)=O.[Na+] [Formula (Ia) sodium salt]
- Plasma concentration (dog #1, 0 h): BLQ
- Plasma concentration (dog #1, 1.0 h): 14.0 nM
- Plasma concentration (dog #1, 3.0 h): 26.0 nM
- Plasma concentration (dog #1, 8.0 h): 56.3 nM
- Plasma concentration (dog #1, 24 h): 57.1 nM
- Plasma concentration (dog #1, 48 h): 71.1 nM
- Plasma concentration (dog #1, 72 h): 51.5 nM
- Plasma concentration (dog #1, 96 h): 46.4 nM
- Plasma concentration (dog #1, 168 h): 47.7 nM
- Plasma concentration (dog #2, 0 h): BLQ
- Plasma concentration (dog #2, 1.0 h): 7.2 nM
- Plasma concentration (dog #2, 3.0 h): 17.0 nM
- Plasma concentration (dog #2, 8.0 h): 25.8 nM
- Plasma concentration (dog #2, 24 h): 25.4 nM
- Plasma concentration (dog #2, 48 h): 29.0 nM
- Plasma concentration (dog #2, 72 h): 16.2 nM
- Plasma concentration (dog #2, 96 h): 14.0 nM
- Plasma concentration (dog #2, 168 h): 13.6 nM
- Plasma concentration (dog #3, 0 h): BLQ
- Plasma concentration (dog #3, 1.0 h): 8.6 nM
- Plasma concentration (dog #3, 3.0 h): 16.8 nM
- Plasma concentration (dog #3, 8.0 h): 32.1 nM
- Plasma concentration (dog #3, 24 h): 54.5 nM
- Plasma concentration (dog #3, 48 h): 57.8 nM
- Plasma concentration (dog #3, 72 h): 58.0 nM
- Plasma concentration (dog #3, 96 h): 59.2 nM
- Plasma concentration (dog #3, 168 h): 43.1 nM
- Plasma concentration (dog mean, n=3, 1.0 h): 10.0 nM
- Plasma concentration (dog mean, n=3, 3.0 h): 19.9 nM
- Plasma concentration (dog mean, n=3, 8.0 h): 38.1 nM
- Plasma concentration (dog mean, n=3, 24 h): 45.7 nM
- Plasma concentration (dog mean, n=3, 48 h): 52.6 nM
- Plasma concentration (dog mean, n=3, 72 h): 41.9 nM
- Plasma concentration (dog mean, n=3, 96 h): 39.9 nM
- Plasma concentration (dog mean, n=3, 168 h): 34.8 nM
- AUC0-24h [1]: 0.85 ± 0.31 µM·h
- AUC0-48h [1]: 2.03 ± 0.76 µM·h
- AUC0-72h [1]: 3.16 ± 1.27 µM·h
- AUC0-168h [1]: 6.83 ± 3.24 µM·h
